Experimental data as given in US10738028B2, “Spiro three-membered ring, spiro five-membered ring peptide deformylase inhibitor and use thereof in antibacteria and anti-tumor” (priority 2016, dated 2020).

Experiments:
Assay type in all cases: cell-based
[1] = system: Enterococcus faecalis (EFA); assay: MIC, two-fold agar dilution (CLSI), clinical isolates
How it was run: (§1)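 Following the American Clinical and Laboratory Standards Institute procedure, agar two-fold dilution served to determine minimum inhibitory concentrations.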

[2] = system: Enterococcus faecium (EFM); assay: as above
How it was run: as §1

[3] = system: Escherichia coli (including ESBLs, non-ESBLs); assay: as above
How it was run: as §1

[4] = system: Moraxella catarrhalis (BCA); assay: as above
How it was run: as §1

[5] = system: Streptococcus pneoumoniae (SPN); assay: as above
How it was run: as §1

[6] = system: methicillin-resistant Staphylococcus aureus (MRSA); assay: as above
How it was run: as §1

[7] = system: methicillin-resistant Staphylococcus epidermidis (MRSE); assay: as above
How it was run: as §1

[8] = system: methicillin-sensitive Staphylococcus aureus (MSSA); assay: as above
How it was run: as §1

[9] = system: methicillin-sensitive Staphylococcus epidermidis (MSSE); assay: as above
How it was run: as §1

[10] = system: HCT-116 colorectal cancer cell line; assay: CCK-8 proliferation inhibition; conditions: Homo sapiens, HCT-116, 72 h, concentration of 30 μM; 72 hours; CCK-8; read-out: HCT116 inhibition rate/%
How it was run: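 Proliferation over 72 hours of compound treatment was measured with CCK-8 against a 1‰ DMSO control.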

With CCCC[C@H](CC(=O)NO)C(=O)N1CC2(CC2)C[C@H]1C(=O)Nc1cc(C)on1 [Example 56, (S)-5-((R)-2-(2-(hydroxyamino)-2-oxoethyl)hexanoyl)-N-(5-methylisoxazol-3-yl)-5-spiro[2.4]heptane-6-carboxamide] the Anti-bacterial activity (MIC), strain EFA 15-1 ([1]; clinical isolate EFA 15-1) was 16 µg/mL, the Anti-bacterial activity (MIC), strain EFA 15-2 ([1]; clinical isolate EFA 15-2) was 16 µg/mL and the Anti-bacterial activity (MIC), strain EFA 15-3 ([1]; clinical isolate EFA 15-3) was 16 µg/mL. For the same compound, the Anti-bacterial activity (MIC), strain EFA 15-4 ([1]; clinical isolate EFA 15-4) was 16 µg/mL, the Anti-bacterial activity (MIC), strain EFA 15-5 ([1]; clinical isolate EFA 15-5) was 16 µg/mL and the Anti-bacterial activity (MIC), strain EFA 15-6 ([1]; clinical isolate EFA 15-6) was 16 µg/mL. It also gave an Anti-bacterial activity (MIC), strain EFA 15-9 ([1]; clinical isolate EFA 15-9) of 16 µg/mL, an Anti-bacterial activity (MIC), strain EFM 15-1 ([2]; clinical isolate EFM 15-1) of 1 µg/mL and an Anti-bacterial activity (MIC), strain EFM 15-2 ([2]; clinical isolate EFM 15-2) of 4 µg/mL. For the same compound, the Anti-bacterial activity (MIC), strain EFM 15-3 ([2]; clinical isolate EFM 15-3) was 1 µg/mL, the Anti-bacterial activity (MIC), strain EFM 15-4 ([2]; clinical isolate EFM 15-4) was 4 µg/mL and the Anti-bacterial activity (MIC), strain EFM 15-5 ([2]; clinical isolate EFM 15-5) was 1 µg/mL. The Anti-bacterial activity (MIC), strain EFM 15-6 ([2]; clinical isolate EFM 15-6) was 4 µg/mL, the Anti-bacterial activity (MIC), strain ECO+ 15-1 ([3]; clinical isolate ECO+ 15-1) was over 16 µg/mL and the Anti-bacterial activity (MIC), strain ECO+ 15-2 ([3]; clinical isolate ECO+ 15-2) was over 16 µg/mL. For the same compound, the Anti-bacterial activity (MIC), strain ECO+ 15-3 ([3]; clinical isolate ECO+ 15-3) was over 16 µg/mL, the Anti-bacterial activity (MIC), strain ECO+ 15-4 ([3]; clinical isolate ECO+ 15-4) was over 16 µg/mL and the Anti-bacterial activity (MIC), strain ECO− 15-1 ([3]; clinical isolate ECO− 15-1) was over 16 µg/mL. It also gave an Anti-bacterial activity (MIC), strain ECO− 15-2 ([3]; clinical isolate ECO− 15-2) of over 16 µg/mL, an Anti-bacterial activity (MIC), strain ECO− 15-3 ([3]; clinical isolate ECO− 15-3) of over 16 µg/mL and an Anti-bacterial activity (MIC), strain ECO− 15-4 ([3]; clinical isolate ECO− 15-4) of over 16 µg/mL. For the same compound, the Anti-bacterial activity (MIC), strain BCA 14-1 ([4]; clinical isolate BCA 14-1) was 4 µg/mL, the Anti-bacterial activity (MIC), strain BCA 14-4 ([4]; clinical isolate BCA 14-4) was 4 µg/mL and the Anti-bacterial activity (MIC), strain BCA 14-5 ([4]; clinical isolate BCA 14-5) was 1 µg/mL. For the same compound, the Anti-bacterial activity (MIC), strain BCA 14-6 ([4]; clinical isolate BCA 14-6) was 8 µg/mL, the Anti-bacterial activity (MIC), strain BCA 14-7 ([4]; clinical isolate BCA 14-7) was 2 µg/mL and the Anti-bacterial activity (MIC), strain BCA 14-8 ([4]; clinical isolate BCA 14-8) was 2 µg/mL. The Anti-bacterial activity (MIC), strain BCA 14-10 ([4]; clinical isolate BCA 14-10) was 2 µg/mL, the Anti-bacterial activity (MIC), strain SPN 16-2 ([5]; clinical isolate SPN 16-2) was 8 µg/mL and the Anti-bacterial activity (MIC), strain SPN 16-4 ([5]; clinical isolate SPN 16-4) was 1 µg/mL. For the same compound, the Anti-bacterial activity (MIC), strain MRSA 15-1 ([6]; clinical isolate MRSA 15-1) was 0.25 µg/mL, the Anti-bacterial activity (MIC), strain MRSA 15-2 ([6]; clinical isolate MRSA 15-2) was 2 µg/mL and the Anti-bacterial activity (MIC), strain MRSA 15-3 ([6]; clinical isolate MRSA 15-3) was 0.5 µg/mL. It also gave an Anti-bacterial activity (MIC), strain MRSA 15-4 ([6]; clinical isolate MRSA 15-4) of 2 µg/mL, an Anti-bacterial activity (MIC), strain MRSE 15-1 ([7]; clinical isolate MRSE 15-1) of 0.125 µg/mL and an Anti-bacterial activity (MIC), strain MRSE 15-2 ([7]; clinical isolate MRSE 15-2) of 2 µg/mL. It also gave an Anti-bacterial activity (MIC), strain MRSE 15-3 ([7]; clinical isolate MRSE 15-3) of 0.25 µg/mL, an Anti-bacterial activity (MIC), strain MRSE 15-7 ([7]; clinical isolate MRSE 15-7) of 0.5 µg/mL and an Anti-bacterial activity (MIC), strain MSSA 15-3 ([8]; clinical isolate MSSA 15-3) of 0.25 µg/mL. The Anti-bacterial activity (MIC), strain MSSA 15-4 ([8]; clinical isolate MSSA 15-4) was 0.25 µg/mL, the Anti-bacterial activity (MIC), strain MSSA 15-5 ([8]; clinical isolate MSSA 15-5) was 0.125 µg/mL and the Anti-bacterial activity (MIC), strain MSSA 15-6 ([8]; clinical isolate MSSA 15-6) was 0.25 µg/mL. It also gave an Anti-bacterial activity (MIC), strain MSSE 15-3 ([9]; clinical isolate MSSE 15-3) of 0.25 µg/mL, an Anti-bacterial activity (MIC), strain MSSE 15-4 ([9]; clinical isolate MSSE 15-4) of 0.06 µg/mL and an Anti-bacterial activity (MIC), strain MSSE 15-5 ([9]; clinical isolate MSSE 15-5) of 0.06 µg/mL. For the same compound, the Anti-bacterial activity (MIC), strain MSSE 15-6 ([9]; clinical isolate MSSE 15-6) was 0.06 µg/mL and the inhibition at 30 µM [10] was 10%.
